According to patent publication US12276654B2, “Chemical probe-dependent evaluation of protein activity and uses thereof” (The University of Chicago, priority 2017, dated 2025):

Target: T1, NCEH1 (Homo sapiens, UniProt Q6PIU2)
T1 sequence (Q6PIU2 1-408): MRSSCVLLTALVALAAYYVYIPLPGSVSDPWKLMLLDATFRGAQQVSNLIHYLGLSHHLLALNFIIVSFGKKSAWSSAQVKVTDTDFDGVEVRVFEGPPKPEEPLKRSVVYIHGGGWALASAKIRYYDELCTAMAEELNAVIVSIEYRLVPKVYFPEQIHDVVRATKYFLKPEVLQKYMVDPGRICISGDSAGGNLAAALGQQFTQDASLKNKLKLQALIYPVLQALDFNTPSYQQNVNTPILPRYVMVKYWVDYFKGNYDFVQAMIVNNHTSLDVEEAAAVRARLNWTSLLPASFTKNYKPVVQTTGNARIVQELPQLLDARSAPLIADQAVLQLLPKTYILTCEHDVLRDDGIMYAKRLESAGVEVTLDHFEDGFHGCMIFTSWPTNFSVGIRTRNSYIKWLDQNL
Test: sADPL in situ target engagement in cancer cells, NCEH1
Type: cell-based
Set-up: endogenous NCEH1 activity in SKOV3 cells; endogenous in cells; host or cells: SKOV3; wild-type PC3; PAFAH2-expressing PC3
Details: inhibitor prior to family-wide probe
Method: FIG. 23. In situ Target Engagement. Cancer cells were treated with DMSO as the control, with inhibitor prior to family wide probe to pre-block the active site, or with family-wide probe directly. Then sADPL workflow was applied to read out the CT difference. Serine hydrolase NCEH1 and its specific inhibitor JW480, or FAAH and inhibitor PF3845 were applied. The activity fold change was transformed from CT value with PCR amplification factor 1.91 determined by a standard qPCR curve and the activities were normalized to DMSO control at different cell lysate concentrations. […] To quantitatively measure the target engagement, different dose of JW480 was applied to either its target NCEH1, or off-target MGLL.
As another alternative detection method, sADPL is complementary with gel-based and MS-based detection methods. In this design, the inventors treat the live cell with several family-wide probes. The probes will label all the members of the protein families. Then one could get the labeled proteome after the cell lysis. […]
A summary of this assay is provided below: • 1. […] In the oligo design, the orthogonal forward primers were employed for different antibody to enable the multiplexing real time PCR readout. […]
Two amine modified oligos were conjugated to antibody and streptavidin, respectively. […] A Taqman probe was designed for real time PCR quantification. […]

With `CC(C)c1ccccc1OC(=O)NCCc1ccc2ccccc2c1` [JW480] the IC50 (cancer cells treated in situ, read-out: apparent IC50, dose-dependent inhibition of NCEH1 by sADPL) was 17.8 nM and the “NCEH1 activity in inhibitor competition group by sADPL, normalized to DMSO control” value (cancer cells) was “bring the activities down to the levels of DMSO controls”.
